Structures can show the parent of a compound that is named as a salt.
Tests used:
rat aortas = experiment: Anti-vasoconstrictive activity in physiological medium: contraction of rat aortas induced by potassium depolarisation; set-up: species or system WISTAR rats; settings: 0.25 h, hyperpotassic medium (80 mM KCl, 37 mM NaCl), cumulative concentrations every 15 minutes, 37° C., read-out: Concentration inhibiting by 50% (IC50) the contraction of rat aortas induced by potassium depolarisation
Procedure: (§1) The studies are carried out on rings, having a length of 3 mm, of aortas removed from WISTAR rats (325-375 g) which have been anaesthetised with sodium pentobarbital (30 mg/kg i.p.); or of aortas removed from New Zealand rabbits (1.8-2 kg) which have likewise been anaesthetised with sodium pentobarbital (30 mg/kg i.p.).
(§2) The vascular rings are immersed in a physiological solution, normal or calcium-free (+0.2 mM of EGTA chelator), which is kept at a temperature of 37° C. and aerated with a mixture of 95% O2 +5% CO2. The rings are connected to a STATHAM (UC2-GOULD) tension sensor. The optimum tensions for each vessel are applied and a stabilisation period of 90 minutes for the specimens is observed.
Table (T1) summarises the IC50s obtained with the compounds of the Examples representing the compounds of the invention, with regard to the contraction of rat aortas induced by a hyperpotassic medium.

rabbit aortas = experiment: Anti-vasoconstrictive activity in calcium-free medium: contraction of rabbit aortas induced by noradrenaline; set-up: species or system New Zealand rabbits; settings: Oryctolagus cuniculus, 0.5 h, 30 minutes incubation, noradrenaline 10^-6 M, calcium-free (+0.2 mM EGTA); for inhibition at 1 µM: 10^-6 M compound; for inhibition at 0.1 µM: 10^-7 M compound
Procedure: as §1, §2
The inhibitory effect of a concentration of the compounds of the invention incubated for 30 minutes, with regard to vascular contraction induced by nonadrenaline (10^-6 M), is tested.

[1] = tested on: left auricle of guinea-pigs; experiment: Effect on the toxic effects of ouabain on the left auricle of guinea-pigs; settings: compound 10^-5 M, ouabain 10^-6 M; for % contracture: percentage of the initial contraction developed
Procedure: The left auricles are removed from guinea-pigs (350-450 g) which have been anaesthetised with sodium pentobarbital (30 mg/kg). The auricles are attached to a STATHAM (UC2-GOULD) tension sensor and the initial tension applied is 0.5 grammes. The auricles are stimulated electrically at 1 Hz by means of platinum electrodes.
Toxic effect is achieved by the addition of ouabain (10^-6 M). The test compounds are added 15 minutes prior to the addition of the toxic agent.

isolated rat's heart = experiment: Protective effect on an isolated rat's heart subjected to hypoxia-reoxygenation; set-up: species or system WISTAR rats; settings: compound 8·10^-7 M, solvent H2O; for % PVG at 30 min DE REOXYGENATION: 30 min reoxygenation after 60 min hypoxia
Procedure: The heart is removed from WISTAR rats (325-375 g). The heart is perfused rapidly according to the technique of LANGENDORFF at a constant pressure of 76 mmHg and is stimulated electrically at 5 Hz.
The heart is subjected to hypoxia for 60 minutes, which is effected by the administration of a gaseous mixture of 95% N2 +5% CO2 during that period, and is followed by reoxygenation for 30 minutes.
The test compounds are incubated for 15 minutes prior to and for the duration of the hypoxia.
The isovolumetric contractions are recorded by means of a polyethylene balloon connected to a pressure sensor (P23-GOULD) introduced into the left ventricle and inflated so as to obtain a diastolic pressure of between 5 and 10 mm of mercury.

SMILES	IC50 (rat aortas) [µM]	inhibition at 1 µM (rabbit aortas) [%]	% contraction ([1]; 10 min, solvent DMSO) [%]	% contracture ([1]; 15 min, solvent DMSO) [%]	% contraction ([1]; 30 min, solvent DMSO) [%]	% contracture ([1]; 30 min, solvent DMSO) [%]	% contraction ([1]; 60 min, solvent DMSO) [%]	% contracture ([1]; 60 min, solvent DMSO) [%]	inhibition at 0.1 µM (rabbit aortas) [%]	% contraction ([1]; 10 min, solvent H2O) [%]	% contracture ([1]; 15 min, solvent H2O) [%]	% contraction ([1]; 30 min, solvent H2O) [%]	% contracture ([1]; 30 min, solvent H2O) [%]	% contraction ([1]; 60 min, solvent H2O) [%]	% contracture ([1]; 60 min, solvent H2O) [%]	Contracture amplitude at 15 min reoxygenation (isolated rat's heart) [mmHg]	% PVG at 30 min DE REOXYGENATION (isolated rat's heart) [%]	Contracture amplitude at 30 min reoxygenation (isolated rat's heart) [mmHg]
CN(CCCCOc1ccc(F)cc1)C1CCN(S(=O)(=O)c2cccc3cnccc23)CC1 [Example 1, Fumarate of 1-(isoquinolin-5-ylsulphonyl)-4-{N-methyl-N-[4-(p-fluorophenoxy)butyl]amino}piperidine]	9.2	62	254.7 ± 22	0	260.6 ± 29	0	253.6 ± 26	4 ± 4										
CN(CCCOc1ccc(F)cc1)CC1CCN(S(=O)(=O)c2cccc3cnccc23)CC1 [Example 3, Fumarate of 1-(isoquinolin-5-ylsulphonyl)-4-{{N-methyl-N-[3-(p-fluorophenoxy)propyl]amino}methyl}piperidine]	1.5	82							43	183.3 ± 20.7	0.9 ± 0.9	155.4 ± 15.0	7.7 ± 1.5	130.7 ± 34.5	21.8 ± 6.2	9.6 ± 2.4	85.4 ± 5.8	1.6 ± 1.0
CN(CCCCCOc1ccc(F)cc1)C1CCN(S(=O)(=O)c2cccc3cnccc23)CC1 [Example 4, Fumarate of 1-(isoquinolin-5-ylsulphonyl)-4 {N-methyl N-[5-(p-fluorophenoxy)pentyl]amino}piperidine]			213.9 ± 22	0	208.6 ± 22	0	211.1 ± 30	0										
CN(CCCC(=O)c1ccc(F)cc1)C1CCN(S(=O)(=O)c2cccc3cnccc23)CC1 [Example 2, Dihydrochloride of 1-(isoquinolin-5-ylsulphonyl)-4-{N-methyl-N-[4-oxo-4-(p-fluorophenyl)butyl]amino}piperidine]	3.3	86							50	184.0 ± 17.3	1.4 ± 1.4	138.8 ± 34.9	10.5 ± 4.7	112.2 ± 31.0	33.5 ± 16.4	5.5 ± 4.3	95.0 ± 1.9	0.5 ± 0.5
CN(CCCC(=O)c1ccc(F)cc1)CC1CCN(S(=O)(=O)c2cccc3cnccc23)CC1 [Example 5, Dihydrochloride of 1-(isoquinolin-5-ylsulphonyl)-4-{N-methyl-N-[4-(p-fluorophenyl)-4-oxobutyl]aminomethyl}piperidine]										206.1 ± 21	0	186.1 ± 21.2	2.8 ± 2.1	141.3 ± 25.3	16.5 ± 9.5			

Source: patent US5298503A, “N-(isoquinolin-5-ylsulphonyl) azacycloalkanes” (Adir et Compagnie, priority 1991, dated 1994)
